From publication PMC4472782, “Antibacterial Characterization of Novel Synthetic Thiazole Compounds against Methicillin-Resistant Staphylococcus pseudintermedius” (PLoS ONE, 2015)
Converted amounts (≈) assume the structure as drawn.

Legend:
[1] = system: murine macrophage cell line (J774.A1); assay: In vitro cytotoxicity analysis (MTS assay); assay type: cell-based; conditions: 10 μg/mL, J774.A1, two hours
Procedure: Compounds were assayed at concentrations of 5 μg/mL, 10 μg/mL, 20 μg/mL, and 40 μg/mL against a murine macrophage cell line (J774.A1) (ATCC TIB-67, American Type Culture Collection (ATCC), Manassas, VA, USA) to determine the potential toxic effect in vitro. Cells were cultured in Dulbeco’s modified Eagle’s medium (Sigma-Aldrich, St. Louis, MO, USA) with 10% fetal bovine serum (USA Scientific, Inc.) at 37°C with 5% CO2. Controls received DMSO alone at a concentration equal to that in drug-treated cell samples. The cells were incubated with the compounds in a 96-well plate at 37°C and 5.0% CO2 for two hours prior to addition of the assay reagent MTS 3-(4,5-dimethylthiazol-2-yl)-5-(3-carboxymethoxyphenyl)-2-(4-sulfophenyl)-2H-tetrazolium) (Promega, Madison, WI, USA). Absorbance readings were taken using a kinetic ELISA microplate reader (Molecular Devices, Sunnyvale, CA, USA). The quantity of viable cells after treatment with each compound was expressed as a percentage of the control, DMSO.
All statistical analyses were performed with GraphPad Prism 6.0 (GraphPad Software, La Jolla, CA). Data generated from cytotoxicity analysis of the thiazole compounds against J774.A1 cells and the 260 and 280 nm cell leakage analysis were analyzed using one-way ANOVA, with post hoc Tukey's multiple comparisons test (P < 0.05).

MRSP (SP3) = assay: Multi-step resistance selection; assay type: cell-based, Staphylococcus pseudintermedius
Procedure: To assess the ability of MRSP to develop resistance to the thiazole compounds, a multi-step resistance selection experiment was performed, as described elsewhere. The broth microdilution method for MIC determination against a clinical isolate of MRSP (SP3) was repeated for ten passages over a period of ten days. The initial inoculum was prepared to a McFarland standard of 0.5. The solution was subsequently diluted 1:300 in MHB to reach a starting inoculum of 1 × 10^5 CFU/mL. For each subsequent passage, the inoculum for the MIC determination was adjusted to a final density of approximately 5 × 10^5 CFU/mL using the contents of a well containing a subinhibitory concentration of the compound (where bacterial growth was observed from the previous passage). Bacteria were then transferred to a new 96-well microtiter plate.

## CCCCC#Cc1ccc(-c2nc(C)c(/C(C)=N/NC(=N)N)s2)cc1 [Compound 3]
[1]
  toxicity to murine macrophage cells (MTS assay): not toxic
MRSP (SP3); MRSP SP3, ten passages, resistance = greater than four-fold increase in initial MIC
  development of resistance by MRSP: not able to develop resistance
MRSP (SP3); MRSP SP3, ten serial passages
  shift in the MIC over ten passages: no change
MRSP (SP3); Staphylococcus pseudintermedius, read-out: initial MIC
  MIC: 1.41 µg/mL (≈ 3.99 µM)
